From ChEMBL document CHEMBL5107961, “Design, synthesis, and biological evaluation of C6-difluoromethylenated epoxymorphinan Mu opioid receptor antagonists” (RSC Med Chem, 2022)

Biological target: Mu-type opioid receptor (Homo sapiens, UniProt P35372)
Type: functional, cell-based, CHO-K1
Description: Antagonist activity at human MOR expressed in CHO-K1 cells assessed as reduction in fentanyl induced cAMP production incubated for 30 mins by Lance ultra cAMP assay

Mu-type opioid receptor, sequence (P35372 whole entry): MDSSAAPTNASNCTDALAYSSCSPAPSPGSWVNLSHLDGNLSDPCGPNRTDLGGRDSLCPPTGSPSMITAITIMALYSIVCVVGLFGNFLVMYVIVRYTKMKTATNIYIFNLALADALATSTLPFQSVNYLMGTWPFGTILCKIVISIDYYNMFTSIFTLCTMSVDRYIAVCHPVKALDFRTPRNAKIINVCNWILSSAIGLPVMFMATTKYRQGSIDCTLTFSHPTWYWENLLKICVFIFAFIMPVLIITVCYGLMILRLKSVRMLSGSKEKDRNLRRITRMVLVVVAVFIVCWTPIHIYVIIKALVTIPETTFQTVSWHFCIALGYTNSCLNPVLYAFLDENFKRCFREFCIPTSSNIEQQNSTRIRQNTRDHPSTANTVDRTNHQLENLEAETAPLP

Oc1ccc2c3c1O[C@H]1C(=C(F)F)CC[C@@]4(O)[C@@H](C2)N(CC2CC2)CC[C@]314
IC50: 5.1 nM
